Experimental data from US9802901B2, “Antibacterial 2H-indazole derivatives” (priority 2013, dated 2017).
Converted amounts (≈) assume the structure as drawn. Read-outs that look alike come from different tables or passages of the source.

How the values were obtained:
wild-type E. coli A-1261 = assay: MIC against wild-type E. coli A-1261 with or without alkaline phosphatase or esterase; format: cell-based; conditions: Escherichia coli
Experimental: Minimal Inhibitory Concentrations (MICs; mg/L) were determined in cation-adjusted Mueller-Hinton Broth by a microdilution method following the description given in “Methods for Dilution Antimicrobial Susceptibility Tests for Bacteria that Grow Aerobically”, Approved standard, 7th ed., Clinical and Laboratory Standards Institute (CLSI) Document M7-A7, Wayne, Pa., USA (2006).
The compounds of Examples 62 and 63 were tested against wild-type E. coli A-1261 in the absence of alkaline phosphatase or esterase, in the presence of an alkaline phosphatase and in the presence of an esterase. The corresponding antibacterial test results are given in Table 2 hereafter (MICs in mg/L).

E. coli ATCC25922 = assay: Bacterial growth minimal inhibitory concentration (broth microdilution, CLSI M7-A7); format: cell-based, Escherichia coli; conditions: cation-adjusted Mueller-Hinton Broth, microdilution, quinolone-sensitive strain; for MIC: Escherichia coli, ATCC25922, read-out: MIC for E. coli ATCC25922
Procedure, shortened: (§1)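 Broth microdilution in cation-adjusted Mueller-Hinton Broth per CLSI M7-A7; MICs reported in mg/L. K. pneumoniae A-651 and A. baumannii T6474 are multiply resistant, quinolone-resistant strains; E. coli ATCC25922 and P. aeruginosa ATCC27853 are quinolone-sensitive.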

P. aeruginosa ATCC27853 = assay: as above; format: cell-based, Pseudomonas aeruginosa; conditions: cation-adjusted Mueller-Hinton Broth, microdilution, quinolone-sensitive strain; for MIC: Pseudomonas aeruginosa, ATCC27853, read-out: MIC for P. aeruginosa ATCC27853
Procedure, shortened: as §1

[1] = system: Acinetobacter baumannii T6474; assay: as above; format: cell-based; conditions: cation-adjusted Mueller-Hinton Broth, microdilution, multiply-resistant (quinolone-resistant) strain; for MIC: Acinetobacter baumannii, T6474, read-out: MIC for A. Baumannii T6474
Procedure, shortened: as §1

K. pneumoniae A-651 = assay: as above; format: cell-based, Klebsiella pneumoniae; conditions: cation-adjusted Mueller-Hinton Broth, microdilution, multiply-resistant (quinolone-resistant) strain; for MIC: Klebsiella pneumoniae, A651, read-out: MIC for K. Pneumoniae A-651
Procedure, shortened: as §1

| Molecule | MIC (wild-type E. coli A-1261; alkaline phosphatase 2 i.U./mL, read-out: MIC for E. coli A-1261 In the presence of an alkaline phosphatase (2 i.U./mL)) [µg/mL] | MIC (wild-type E. coli A-1261; esterase 10 i.U./mL, read-out: MIC for E. coli A-1261 In the presence of an esterase (10 i.U./mL)) [µg/mL] | MIC (wild-type E. coli A-1261; no alkaline phosphatase or esterase, read-out: MIC for E. coli A-1261 In the absence of alkaline phosphatase or esterase) [µg/mL] | MIC for E. coli ATCC25922 (E. coli ATCC25922) | MIC for P. aeruginosa ATCC27853 (P. aeruginosa ATCC27853) [mg/L] | MIC for A. Baumannii T6474 [1] [mg/L] | MIC for K. Pneumoniae A-651 (K. pneumoniae A-651) [mg/L] | MIC (E. coli ATCC25922) [µg/mL] | MIC (P. aeruginosa ATCC27853) [µg/mL] | MIC [1] [µg/mL] | MIC (K. pneumoniae A-651) [µg/mL] |
| --- | --- | --- | --- | --- | --- | --- | --- | --- | --- | --- | --- |
| C[C@@](CCn1cc2cc(C#Cc3ccc(C4(COP(=O)(O)O)CC4)cc3)ccc2n1)(C(=O)NO)S(C)(=O)=O [Example 62, (R)-(1-(4-((2-(4-(hydroxyamino)-3-methyl-3-(methylsulfonyl)-4-oxobutyl)-2H-indazol-5-yl)ethynyl)phenyl)cyclopropyl)methyl dihydrogen phosphate] | 1 | > 16 | > 16 | – | – | – | – | – | – | – | – |
| C[C@@](CCn1cc2cc(C#CC#CCC3(O)CC(CO)C3)ccc2n1)(C(=O)NO)S(C)(=O)=O (stereo partly drawn) [Example 66] | – | – | – | 1 mg/L | 2 | >32 | 4 | – | – | – | – |
| C[C@@]1(C#CC#Cc2ccc3nn(CC[C@](C)(C(=O)NO)S(C)(=O)=O)cc3c2)C[C@H]1CO [Example 67, (R)—N-hydroxy-4-(5-(((1R,2R)-2-(hydroxymethyl)-1-methylcyclopropyl)buta-1,3-diyn-1-yl)-2H-indazol-2-yl)-2-methyl-2-(methylsulfonyl)butanamide] | – | – | – | – | – | – | – | 0.125 (≈ 0.282 µM) | 0.25 (≈ 0.564 µM) | 32 (≈ 72.1 µM) | 0.125 (≈ 0.282 µM) |
| C[C@@](CCn1cc2cc(C#CC#CC3(CO)COC3)ccc2n1)(C(=O)NO)S(C)(=O)=O [Example 68, (R)—N-hydroxy-4-(5-((3-(hydroxymethyl)oxetan-3-yl)buta-1,3-diyn-1-yl)-2H-indazol-2-yl)-2-methyl-2-(methylsulfonyl)butanamide] | – | – | – | – | – | – | – | 1 (≈ 2.24 µM) | 1 (≈ 2.24 µM) | > 32 | 1 (≈ 2.24 µM) |
| C[C@]1(CO)C[C@@H]1C#CC#Cc1ccc2nn(CC[C@](C)(C(=O)NO)S(C)(=O)=O)cc2c1 [Example 69] | – | – | – | ≦0.063 mg/L | 0.25 | 2 | 0.125 | – | – | – | – |
| C[C@@](CCn1cc2cc(C#CC#CC3CCC(NC(=O)CN)C3)ccc2n1)(C(=O)NO)S(C)(=O)=O (stereo partly drawn) [Example 70, (R)-4-(5-((3-(2-aminoacetamido)cyclopentyl)buta-1,3-diyn-1-yl)-2H-indazol-2-yl)-N-hydroxy-2-methyl-2-(methylsulfonyl)butanamide] | – | – | – | – | – | – | – | 1 (≈ 2 µM) | 2 (≈ 4 µM) | > 32 | 1 (≈ 2 µM) |
| C[C@@](CCn1cc2cc(C#CC#C[C@@H]3C[C@H]3[C@H](O)CO)ccc2n1)(C(=O)NO)S(C)(=O)=O [Example 71, (R)-4-(5-(((1R,2R)-2-((S)-1,2-dihydroxyethyl)cyclopropyl)buta-1,3-diyn-1-yl)-2H-indazol-2-yl)-N-hydroxy-2-methyl-2-(methylsulfonyl)butanamide] | – | – | – | – | – | – | – | 0.25 (≈ 0.544 µM) | 0.25 (≈ 0.544 µM) | 8 (≈ 17.4 µM) | 0.5 (≈ 1.09 µM) |
| C[C@@](CCn1cc2cc(C#CC#C[C@@H]3C[C@H]3CN)ccc2n1)(C(=O)NO)S(C)(=O)=O [Example 72, (R)-4-(5-(((1R,2R)-2-(aminomethyl)cyclopropyl)buta-1,3-diyn-1-yl)-2H-indazol-2-yl)-N-hydroxy-2-methyl-2-(methylsulfonyl)butanamide] | – | – | – | – | – | – | – | 2 (≈ 4.67 µM) | 2 (≈ 4.67 µM) | > 8 | 4 (≈ 9.33 µM) |
| C[C@@](CCn1cc2cc(C#CC#CC3(CO)CCC3)ccc2n1)(C(=O)NO)S(C)(=O)=O [Example 73, (R)—N-hydroxy-4-(5-((1-(hydroxymethyl)cyclobutyl)buta-1,3-diyn-1-yl)-2H-indazol-2-yl)-2-methyl-2-(methylsulfonyl)butanamide] | – | – | – | – | – | – | – | 0.125 (≈ 0.282 µM) | 1 (≈ 2.25 µM) | 32 (≈ 72.1 µM) | 0.25 (≈ 0.564 µM) |
| C[C@@](CCn1cc2cc(C#CC#C[C@@]3(F)C[C@@H]3CO)ccc2n1)(C(=O)NO)S(C)(=O)=O [Example 74, (R)-4-(5-(((1R,2R)-1-fluoro-2-(hydroxymethyl)cyclopropyl)buta-1,3-diyn-1-yl)-2H-indazol-2-yl)-N-hydroxy-2-methyl-2-(methylsulfonyl)butanamide] | – | – | – | – | – | – | – | 0.125 (≈ 0.279 µM) | 0.5 (≈ 1.12 µM) | 4 (≈ 8.94 µM) | 0.125 (≈ 0.279 µM) |
| CN(C)CC#CC#Cc1ccc2nn(CC[C@](C)(C(=O)NO)S(C)(=O)=O)cc2c1 [Example 75, (R)-4-(5-(5-(dimethylamino)penta-1,3-diyn-1-yl)-2H-indazol-2-yl)-N-hydroxy-2-methyl-2-(methylsulfonyl)butanamide] | – | – | – | – | – | – | – | 0.125 (≈ 0.3 µM) | 0.5 (≈ 1.2 µM) | > 32 | 0.15 (≈ 0.36 µM) |
| C[C@@](CCn1cc2cc(C#CC#CC3CCNCC3)ccc2n1)(C(=O)NO)S(C)(=O)=O [Example 76, (R)—N-hydroxy-2-methyl-2-(methylsulfonyl)-4-(5-(piperidin-4-ylbuta-1,3-diyn-1-yl)-2H-indazol-2-yl)butanamide] | – | – | – | – | – | – | – | 8 (≈ 18.1 µM) | 2 (≈ 4.52 µM) | > 32 | 32 (≈ 72.3 µM) |
| C[C@@](CCn1cc2cc(C#CC#C[C@H]3C[C@]3(F)CO)ccc2n1)(C(=O)NO)S(C)(=O)=O [Example 77, (R)-4-(5-(((1R,2R)-2-fluoro-2-(hydroxymethyl)cyclopropyl)buta-1,3-diyn-1-yl)-2H-indazol-2-yl)-N-hydroxy-2-methyl-2-(methylsulfonyl)butanamide] | – | – | – | – | – | – | – | 0.125 (≈ 0.279 µM) | 0.25 (≈ 0.559 µM) | 4 (≈ 8.94 µM) | 0.25 (≈ 0.559 µM) |
| C[C@@](CCn1cc2cc(C#CC#CC3CCN(C(=O)CO)CC3)ccc2n1)(C(=O)NO)S(C)(=O)=O [Example 78] | – | – | – | 0.5 mg/L | 1 | 4 | 2 | – | – | – | – |
| C[C@@](CCn1cc2cc(C#Cc3ccc(C4(N)CC4)cc3)ccc2n1)(C(=O)NO)S(C)(=O)=O.O=CO [Example 79, (R)-4-(5-((4-(1-aminocyclopropyl)phenyl)ethynyl)-2H-indazol-2-yl)-N-hydroxy-2-methyl-2-(methylsulfonyl)butanamide formate] | – | – | – | – | – | – | – | 0.125 | 1 | 2 | 0.25 |
| C[C@@](CCn1cc2cc(C#CC#CCC3(O)COC3)ccc2n1)(C(=O)NO)S(C)(=O)=O [Example 80, (R)—N-hydroxy-4-(5-(5-(3-hydroxyoxetan-3-yl)penta-1,3-diyn-1-yl)-2H-indazol-2-yl)-2-methyl-2-(methylsulfonyl)butanamide] | – | – | – | – | – | – | – | 0.5 (≈ 1.12 µM) | 1 (≈ 2.24 µM) | 32 (≈ 71.8 µM) | 1 (≈ 2.24 µM) |
| C[C@@](CCn1cc2cc(C#CC#CC3CN(C(=O)CO)C3)ccc2n1)(C(=O)NO)S(C)(=O)=O [Example 81, (R)—N-hydroxy-4-(5-((1-(2-hydroxyacetyl)azetidin-3-yl)buta-1,3-diyn-1-yl)-2H-indazol-2-yl)-2-methyl-2-(methylsulfonyl)butanamide] | – | – | – | – | – | – | – | 0.5 (≈ 1.06 µM) | 1 (≈ 2.12 µM) | 4 (≈ 8.47 µM) | 1 (≈ 2.12 µM) |
| CC(C)(N)CC#CC#Cc1ccc2nn(CC[C@](C)(C(=O)NO)S(C)(=O)=O)cc2c1 [Example 82, (R)-4-(5-(6-amino-6-methylhepta-1,3-diyn-1-yl)-2H-indazol-2-yl)-N-hydroxy-2-methyl-2-(methylsulfonyl)butanamide] | – | – | – | – | – | – | – | 4 (≈ 9.29 µM) | 4 (≈ 9.29 µM) | > 32 | 8 (≈ 18.6 µM) |
| C[C@@](CCn1cc2cc(C#CC#CC3CCN(C(=O)CN)CC3)ccc2n1)(C(=O)NO)S(C)(=O)=O.O=CO [Example 83, (R)-4-(5-((1-glycylpiperidin-4-yl)buta-1,3-diyn-1-yl)-2H-indazol-2-yl)-N-hydroxy-2-methyl-2-(methylsulfonyl)butanamide formate] | – | – | – | – | – | – | – | 2 | 4 | 32 | 8 |
| C[C@@](CCn1cc2cc(C#CC#CC3CN(C(=O)CN)C3)ccc2n1)(C(=O)NO)S(C)(=O)=O [Example 84, (R)-4-(5-((1-glycylazetidin-3-yl)buta-1,3-diyn-1-yl)-2H-indazol-2-yl)-N-hydroxy-2-methyl-2-(methylsulfonyl)butanamide] | – | – | – | – | – | – | – | 1 (≈ 2.12 µM) | 0.5 (≈ 1.06 µM) | > 32 | 4 (≈ 8.48 µM) |
| CC(C)(N)C(=O)N1CC(C#CC#Cc2ccc3nn(CC[C@](C)(C(=O)NO)S(C)(=O)=O)cc3c2)C1 [Example 85, (R)-4-(5-((1-(2-amino-2-methylpropanoyl)azetidin-3-yl)buta-1,3-diyn-1-yl)-2H-indazol-2-yl)-N-hydroxy-2-methyl-2-(methylsulfonyl)butanamide] | – | – | – | – | – | – | – | 4 (≈ 8.01 µM) | 2 (≈ 4 µM) | > 32 | 8 (≈ 16 µM) |
| (R)-4-(5-(5-amino-5-methylhexa-1,3-diyn-1-yl)-2H-indazol-2-yl)-N-hydroxy-2-methyl-2-(methylsulfonyl)butanamide [Example 24] | – | – | – | 0.5 mg/L | 0.5 | >32 | 1 | – | – | – | – |
